Measured values: patent US12097171B2, “Petrolatum-based PHMB compositions and methods of treatment for onychomycosis” (GLOBAL HEALTH SOLUTIONS LLC, priority 2015, dated 2024)
Where “and” joins values, the source holds several entries; their conditions need not be identical. Equal entries are not always repeated.

Assays:
[1] = system: skin of female albino New Zealand White rabbits; assay: Rabbit skin irritation; settings: per rabbit, 24, 48 and 72 hour observations, two test sites, sulfate
Method: Within 24 hours to 4 hours before test application, the backs of female albino New Zealand White rabbits were clipped free of hair, exposing 2 test and 2 control areas on each side of the spine with a size of approximately 15 cm×15 cm. The two test sites are located on the left cranial section and the right caudal section of the dorsal region. The two control sites are located on the left caudal and right cranial section of the dorsal region. FIG. 4 depicts the arrangement of test and control sites. The exposed skin is wiped with alcohol and dried. Rabbits of acceptable skin quality were selected and used for testing.
A 25×25 mm gauze patch saturated with 0.5 mL of 0.9% NaCl is used for the control and applied to the clipped control sites. The patches are secured using hypoallergenic, waterproof, surgical tape over the test and control sites. The animal's trunk is securely wrapped so as to maintain the position of the patches. Patches are left applied for a minimum of four hours.
After patch removal, the test and control sites were then scored for erythema and edema at 1, 24, 48 and 72 hours after patch removal. Only the 24, 48, and 72 hour observations were scored and used for calculations. If no response was expected, testing was conducted using three animals per test article. If irritation was anticipated, one animal was tested initially. If the first animal received a score of 2 or less for either erythema or edema, 2 additional rabbits were used to conclude the test.
This total was divided by the total number of observations. The same was done for the control sites. […] These scores for each animal were added and divided by the total number of animals to give the Primary Irritation Index. […] For any response, the Maximum Irritation Response, the time of onset of the response and the time of maximum response was recorded.
To positively validate the test, 10% sodium dodecyl sulfate (SDS), which is a known dermal irritant, in petroleum jelly was applied to a 2.5 cm×2.5 cm gauze patch. As a negative control, 0.5 mL of 0.9% NaCl was applied to a 2.5 cm×2.5 cm gauze patch. […]

[2] = system: human subjects having onychomycosis; settings: comparison value for standard of care; cited from earlier work

CCCCCCCCCCCCOS(=O)(=O)[O-].[Na+] [10% SDS, sodium dodecyl sulfate]
ED (edema) score total ([1]; patch at least four hours): 19 and 21 and 14
ER (erythema) score total ([1]; patch at least four hours): 21 and 23 and 18
ER + ED = Total [1]: 40 and 44 and 32

CN(C/C=C/C#CC(C)(C)C)Cc1cccc2ccccc12 [Lamisil]
effectiveness of standard of care treatments [2]: 20%
